HELM strings list units from the 5' end as sugar, base in round brackets, then linkage (d deoxyribose, r ribose, m 2'-O-methyl, p phosphodiester). Strings are as the collection lists them; they lack the last nucleoside at the 3' end of the tested compound. [moe] = 2'-O-(2-methoxyethyl) (MOE); [sp] = phosphorothioate linkage; [m5C] = 5-methylcytosine
Molecular target: UBE3A-ATS
Experiment: mouse, dose not given
Details: ASO

Substance	3 h FOB score
RNA1{[moe](A)[sp].[moe](T)p.[moe](G)p.[moe](T)p.d(G)[sp].d([m5C])[sp].d(A)[sp].d(T)[sp].d(A)[sp].d([m5C])[sp].d([m5C])[sp].d([m5C])[sp].d(A)[sp].d(G)[sp].[moe](G)p.[moe](G)p.[moe](T)p.[moe](A)[sp].[moe](G)}$$$$ (last 3' nucleoside missing)	1.8 score 0-7
RNA1{[moe](T)[sp].[moe](T)p.[moe](T)p.[moe](A)p.[moe](T)p.d(A)[sp].d([m5C])[sp].d(T)[sp].d(T)[sp].d(T)[sp].d(A)[sp].d([m5C])[sp].d([m5C])[sp].d([m5C])[sp].d(A)[sp].[moe](A)p.[moe]([m5C])p.[moe](T)[sp].[moe](T)}$$$$ (last 3' nucleoside missing)	0 score 0-7
RNA1{[moe](T)[sp].[moe](G)p.[moe](T)p.[moe](A)p.[moe]([m5C])p.d(A)[sp].d(A)[sp].d(A)[sp].d([m5C])[sp].d(G)[sp].d(G)[sp].d(G)[sp].d([m5C])[sp].d(T)[sp].d(A)[sp].[moe](T)p.[moe](G)p.[moe](T)[sp].[moe](G)}$$$$ (last 3' nucleoside missing)	7 score 0-7
RNA1{[moe](T)[sp].[moe](G)p.[moe]([m5C])p.[moe](T)p.d([m5C])[sp].d(A)[sp].d(G)[sp].d(T)[sp].d(T)[sp].d(A)[sp].d(G)[sp].d(G)[sp].d(T)[sp].d(T)[sp].[moe](A)p.[moe](G)p.[moe](T)p.[moe](G)[sp].[moe]([m5C])}$$$$ (last 3' nucleoside missing)	4 score 0-7
RNA1{[moe]([m5C])[sp].[moe]([m5C])p.[moe](A)p.[moe](T)p.[moe](T)p.d(T)[sp].d(T)[sp].d(G)[sp].d(A)[sp].d([m5C])[sp].d([m5C])[sp].d(T)[sp].d(T)[sp].d([m5C])[sp].d(T)[sp].[moe](T)p.[moe](A)p.[moe](G)[sp].[moe]([m5C])}$$$$ (last 3' nucleoside missing)	1 score 0-7
RNA1{[moe](T)[sp].[moe](G)p.[moe]([m5C])p.[moe](T)p.[moe](T)p.[moe]([m5C])p.d(A)[sp].d([m5C])[sp].d([m5C])[sp].d(A)[sp].d(T)[sp].d(T)[sp].d(T)[sp].d(T)[sp].d(G)[sp].d(A)[sp].[moe]([m5C])p.[moe]([m5C])[sp].[moe](T)}$$$$ (last 3' nucleoside missing)	0 score 0-7
RNA1{[moe](T)[sp].[moe]([m5C])p.[moe](A)p.[moe](G)p.[moe](T)p.[moe](T)p.d(A)[sp].d(G)[sp].d(G)[sp].d(T)[sp].d(T)[sp].d(A)[sp].d(G)[sp].d(T)[sp].d(G)[sp].d([m5C])[sp].[moe](A)p.[moe]([m5C])[sp].[moe](A)}$$$$ (last 3' nucleoside missing)	4.8 score 0-7
RNA1{[moe](T)[sp].[moe](G)p.[moe](T)p.[moe](G)[sp].d([m5C])[sp].d(A)[sp].d(T)[sp].d(A)[sp].d([m5C])[sp].d([m5C])[sp].d([m5C])[sp].d(A)[sp].[moe](G)p.[moe](G)p.[moe](G)p.[moe](T)[sp].[moe](A)}$$$$ (last 3' nucleoside missing)	1 score 0-7
RNA1{[moe](G)[sp].[moe]([m5C])p.[moe](A)p.[moe](T)p.[moe](A)[sp].d([m5C])[sp].d([m5C])[sp].d([m5C])[sp].d(A)[sp].d(G)[sp].d(G)[sp].d(G)[sp].d(T)[sp].[moe](A)p.[moe](G)p.[moe](G)[sp].[moe](A)}$$$$ (last 3' nucleoside missing)	1 score 0-7
RNA1{[moe](G)[sp].[moe](T)p.[moe](G)p.[moe](T)p.[moe]([m5C])p.d(A)[sp].d(T)[sp].d(A)[sp].d(T)[sp].d(G)[sp].d(T)[sp].d(A)[sp].d(G)[sp].d([m5C])[sp].d(A)[sp].[moe](A)p.[moe](T)p.[moe](T)[sp].[moe](A)}$$$$ (last 3' nucleoside missing)	6.5 score 0-7
RNA1{[moe](G)[sp].[moe](A)p.[moe](G)p.[moe](A)p.[moe]([m5C])p.d(A)[sp].d(T)[sp].d(G)[sp].d(T)[sp].d(G)[sp].d([m5C])[sp].d([m5C])[sp].d(A)[sp].d(G)[sp].d(T)[sp].[moe](T)p.[moe]([m5C])p.[moe](A)[sp].[moe](A)}$$$$ (last 3' nucleoside missing)	6 score 0-7
RNA1{[moe](T)[sp].[moe](G)p.[moe](A)p.[moe](T)p.[moe]([m5C])[sp].d(A)[sp].d([m5C])[sp].d(A)[sp].d(T)[sp].d(T)[sp].d(A)[sp].d([m5C])[sp].d([m5C])[sp].[moe]([m5C])p.[moe](A)p.[moe](T)[sp].[moe]([m5C])}$$$$ (last 3' nucleoside missing)	1 score 0-7
RNA1{[moe](T)[sp].[moe](A)p.[moe](A)p.[moe](A)p.[moe](A)p.d([m5C])[sp].d(G)[sp].d([m5C])[sp].d(A)[sp].d(A)[sp].d(T)[sp].d(G)[sp].d(T)[sp].d(A)[sp].d(T)[sp].[moe]([m5C])p.[moe](A)p.[moe](G)[sp].[moe](G)}$$$$ (last 3' nucleoside missing)	1 score 0-7
RNA1{[moe](T)[sp].[moe](T)p.[moe]([m5C])p.[moe]([m5C])p.[moe]([m5C])p.d(A)[sp].d(T)[sp].d(T)[sp].d([m5C])[sp].d(A)[sp].d(G)[sp].d([m5C])[sp].d(A)[sp].d([m5C])[sp].d(T)[sp].[moe](T)p.[moe](A)p.[moe](G)[sp].[moe](G)}$$$$ (last 3' nucleoside missing)	3.3 score 0-7
RNA1{[moe](G)[sp].[moe](G)p.[moe](T)p.[moe]([m5C])p.[moe](A)p.[moe](T)p.d([m5C])[sp].d(T)[sp].d([m5C])[sp].d(G)[sp].d(G)[sp].d(G)[sp].d(T)[sp].d(A)[sp].d(T)[sp].d(A)[sp].[moe](T)p.[moe](A)[sp].[moe](A)}$$$$ (last 3' nucleoside missing)	6 score 0-7
RNA1{[moe](T)[sp].[moe](G)p.[moe]([m5C])p.[moe](T)p.[moe]([m5C])p.[moe](A)p.d(G)[sp].d(T)[sp].d(T)[sp].d(A)[sp].d(G)[sp].d(G)[sp].d(T)[sp].d(T)[sp].d(A)[sp].d(G)[sp].[moe](T)p.[moe](G)[sp].[moe]([m5C])}$$$$ (last 3' nucleoside missing)	4 score 0-7
RNA1{[moe](T)[sp].[moe](T)p.[moe](G)p.[moe](A)p.[moe](T)p.d([m5C])[sp].d(T)[sp].d(A)[sp].d(T)[sp].d(T)[sp].d(A)[sp].d(T)[sp].d(G)[sp].d(A)[sp].d(G)[sp].[moe](G)p.[moe](G)p.[moe]([m5C])[sp].[moe](A)}$$$$ (last 3' nucleoside missing)	4.7 score 0-7
RNA1{[moe](T)[sp].[moe](G)p.[moe]([m5C])p.[moe](A)p.[moe](T)[sp].d(A)[sp].d([m5C])[sp].d([m5C])[sp].d([m5C])[sp].d(A)[sp].d(G)[sp].d(G)[sp].d(G)[sp].[moe](T)p.[moe](A)p.[moe](G)[sp].[moe](G)}$$$$ (last 3' nucleoside missing)	1 score 0-7
RNA1{[moe](G)[sp].[moe](A)p.[moe](T)p.[moe](T)p.[moe](T)p.d([m5C])[sp].d([m5C])[sp].d(T)[sp].d(T)[sp].d(A)[sp].d([m5C])[sp].d(T)[sp].d(G)[sp].d(A)[sp].d(G)[sp].[moe](T)p.[moe](G)p.[moe](A)[sp].[moe](G)}$$$$ (last 3' nucleoside missing)	1 score 0-7

Reference: the OligoGym collection
